Data as given in ChEMBL document CHEMBL5143522, “Discovery of novel 6-hydroxybenzothiazole urea derivatives as dual Dyrk1A/α-synuclein aggregation inhibitors with neuroprotective effects” (Eur J Med Chem, 2022).
Calls of active or inactive are those of the source. The rule behind the calls is not given here.

Legend:
[1] = biological target: Dual specificity tyrosine-phosphorylation-regulated kinase 1B (Homo sapiens) (UniProt Q9Y463); test: Inhibition of human recombinant DYRK1B at 1 uM using KKISGRLSPIMTEQ as substrate incubated in presence of ATP relative to control
SH-SY5Y [2] = test: Neuroprotective activity against alpha-syn induced cytotoxicity against human SH-SY5Y cells assessed as increase in cell viability at 10 uM by MTT assay; type: functional, cell-based
[3] = Permeability of the compound in PBS/EtOH buffer (7:3) incubated for 16 hrs by PAMPA-BBB assay
[4] = biological target: T1, Dual specificity tyrosine-phosphorylation-regulated kinase 1A (Homo sapiens, UniProt Q13627); test: Inhibition of human N-terminal His6-tagged DYRK1A expressed in Escherichia coli BL21 (DE3) using KKISGRLSPIMTEQ as substrate incubated in presence of ATP
[5] = biological target: Cyclin-dependent kinase 5/CDK5 activator 1 (Homo sapiens) (UniProt Q00535+Q15078); test: Inhibition of CDK5/p25 (unknown origin) at 1 uM by Selectscreen kinase assay relative to control; type: protein-complex assay
[6] = biological target: Dual specificity protein kinase CLK1 (Homo sapiens) (UniProt P49759); test: Inhibition of GST-tagged human recombinant CLK1 (129 to 484 residues) expressed in Escherichia coli at 1 uM using GRSRSRSRSRSRSRSR as substrate incubated in presence of ATP by Selectscreen kinase assay relative to control
[7] = biological target: Casein kinase I isoform delta (Homo sapiens) (UniProt P48730); test: Inhibition of CSNK1D (unknown origin) at 1 uM incubated in presence of ATP by Selectscreen kinase assay relative to control
[8] = biological target: Serine/threonine-protein kinase pim-1 (Homo sapiens) (UniProt P11309); test: Inhibition of PIM1 (unknown origin) at 1 uM incubated in presence of ATP by Selectscreen kinase assay relative to control
[9] = biological target: SRSF protein kinase 1 (Homo sapiens) (UniProt Q96SB4); test: Inhibition of SRPK1 (unknown origin) at 1 uM incubated in presence of ATP by Selectscreen kinase assay relative to control
[10] = biological target: T2, Dual specificity tyrosine-phosphorylation-regulated kinase 2 (Homo sapiens) (UniProt Q92630); test: Inhibition of DYRK2 (unknown origin) at 1 uM incubated in presence of ATP by Selectscreen kinase assay relative to control
T2 sequence (whole entry): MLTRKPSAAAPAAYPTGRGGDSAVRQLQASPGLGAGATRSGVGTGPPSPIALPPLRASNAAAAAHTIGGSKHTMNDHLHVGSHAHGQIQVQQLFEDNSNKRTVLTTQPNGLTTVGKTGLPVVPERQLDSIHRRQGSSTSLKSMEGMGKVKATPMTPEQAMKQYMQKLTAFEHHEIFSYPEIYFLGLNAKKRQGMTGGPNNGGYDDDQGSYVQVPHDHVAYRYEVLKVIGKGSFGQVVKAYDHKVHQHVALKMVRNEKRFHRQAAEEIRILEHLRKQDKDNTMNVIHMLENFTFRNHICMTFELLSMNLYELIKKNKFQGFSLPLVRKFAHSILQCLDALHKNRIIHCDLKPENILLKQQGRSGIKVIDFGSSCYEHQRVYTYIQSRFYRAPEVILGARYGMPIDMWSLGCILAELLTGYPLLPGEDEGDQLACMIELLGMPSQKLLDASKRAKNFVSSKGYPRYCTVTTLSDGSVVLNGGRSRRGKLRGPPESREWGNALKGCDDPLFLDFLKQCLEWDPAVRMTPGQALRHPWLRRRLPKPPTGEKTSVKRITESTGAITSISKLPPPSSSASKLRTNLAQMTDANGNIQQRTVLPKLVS

[11] = biological target: T3, Serine/threonine-protein kinase 17A (Homo sapiens) (UniProt Q9UEE5); test: Inhibition of STK17A (unknown origin) at 1 uM incubated in presence of ATP by Selectscreen kinase assay relative to control
T3 sequence (whole entry): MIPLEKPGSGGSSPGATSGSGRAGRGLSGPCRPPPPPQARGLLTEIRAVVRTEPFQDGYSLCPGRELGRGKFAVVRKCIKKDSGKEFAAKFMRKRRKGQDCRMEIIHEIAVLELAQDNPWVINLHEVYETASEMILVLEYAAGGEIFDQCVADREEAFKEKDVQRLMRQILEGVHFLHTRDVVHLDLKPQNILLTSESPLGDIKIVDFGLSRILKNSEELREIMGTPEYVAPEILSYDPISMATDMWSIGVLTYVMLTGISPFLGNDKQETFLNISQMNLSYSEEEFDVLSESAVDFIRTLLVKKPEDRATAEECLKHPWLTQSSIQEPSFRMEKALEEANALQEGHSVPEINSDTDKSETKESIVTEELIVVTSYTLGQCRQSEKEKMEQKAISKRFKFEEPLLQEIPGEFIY

[12] = biological target: Glycogen synthase kinase-3 beta (Homo sapiens) (UniProt P49841); test: Inhibition of GSK3beta (unknown origin) at 1 uM incubated in presence of ATP by Selectscreen kinase assay relative to control
[13] = biological target: T1, Dual specificity tyrosine-phosphorylation-regulated kinase 1A; test: Binding affinity to C-terminal HiBiT-tagged human DYRK1A (28 to 499 residues) stably expressed in HEK293 cells assessed as thermal stability by measuring increase in DYRK1A in soluble fraction at 10 to 30 uM incubated for 3.5 mins by ITDRF-CETSA analysis; type: cell-based; conditions: dose 10-30 µM
[14] = biological target: T1, Dual specificity tyrosine-phosphorylation-regulated kinase 1A; test: Inhibition of DYRK1A in human HeLa cells transiently expressing GFP-SF3B1 fusion protein assessed as reduction in SF3B1 phosphorylation incubated for 24 hrs by immunoblot analysis; type: cell-based
[15] = biological target: T1, Dual specificity tyrosine-phosphorylation-regulated kinase 1A; conditions: dose 250.0 nM
SH-SY5Y [16] = test: Neuroprotective activity against 6-OHDA induced cytotoxicity against human SH-SY5Y cells assessed as increase in cell viability at 10 uM by MTT assay; type: functional, cell-based
[17] = biological target: T1, Dual specificity tyrosine-phosphorylation-regulated kinase 1A; test: Inhibition of human Dyrk1A
[18] = biological target: T4, Dual specificity tyrosine-phosphorylation-regulated kinase 2 (Homo sapiens, UniProt Q92630); test: Inhibition of Dyrk2 (unknown origin)
T4 sequence (Q92630 whole entry): T2 sequence (whole entry)

[19] = biological target: Homeodomain-interacting protein kinase 1 (Homo sapiens) (UniProt Q86Z02); test: Inhibition of HIPK1 (unknown origin) at 1 uM incubated in presence of ATP by Selectscreen kinase assay relative to control
[20] = biological target: Myosin light chain kinase 2, skeletal/cardiac muscle (Homo sapiens) (UniProt Q9H1R3); test: Inhibition of MLCK2 (unknown origin) at 1 uM incubated in presence of ATP by Selectscreen kinase assay relative to control
[21] = biological target: T5, Serine/threonine-protein kinase haspin (Homo sapiens) (UniProt Q8TF76); test: Inhibition of GSG2 (unknown origin) at 1 uM incubated in presence of ATP by Selectscreen kinase assay relative to control
T5 sequence (whole entry): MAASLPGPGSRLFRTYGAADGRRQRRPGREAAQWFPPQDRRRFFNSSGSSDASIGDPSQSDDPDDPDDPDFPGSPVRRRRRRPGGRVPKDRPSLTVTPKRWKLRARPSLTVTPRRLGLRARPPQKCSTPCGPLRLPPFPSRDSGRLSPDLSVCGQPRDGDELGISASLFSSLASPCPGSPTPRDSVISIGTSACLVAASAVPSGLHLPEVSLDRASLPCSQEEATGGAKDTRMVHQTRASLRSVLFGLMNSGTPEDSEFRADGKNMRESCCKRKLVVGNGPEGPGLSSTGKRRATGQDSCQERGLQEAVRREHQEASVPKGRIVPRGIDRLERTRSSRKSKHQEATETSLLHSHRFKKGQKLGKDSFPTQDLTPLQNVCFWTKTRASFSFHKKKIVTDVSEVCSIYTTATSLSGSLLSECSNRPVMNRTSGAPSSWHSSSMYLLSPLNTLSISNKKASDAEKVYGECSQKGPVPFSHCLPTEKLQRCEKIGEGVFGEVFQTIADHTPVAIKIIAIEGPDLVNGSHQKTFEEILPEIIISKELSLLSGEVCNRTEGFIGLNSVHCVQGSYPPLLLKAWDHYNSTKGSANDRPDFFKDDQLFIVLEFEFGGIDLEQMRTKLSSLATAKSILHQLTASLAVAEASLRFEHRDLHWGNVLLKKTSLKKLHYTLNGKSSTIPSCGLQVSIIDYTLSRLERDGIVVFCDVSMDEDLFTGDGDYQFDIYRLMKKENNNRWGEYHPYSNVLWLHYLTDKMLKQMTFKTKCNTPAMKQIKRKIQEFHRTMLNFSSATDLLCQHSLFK

Dual specificity tyrosine-phosphorylation-regulated kinase 1B (Homo sapiens), sequence (Q9Y463 whole entry, looked up): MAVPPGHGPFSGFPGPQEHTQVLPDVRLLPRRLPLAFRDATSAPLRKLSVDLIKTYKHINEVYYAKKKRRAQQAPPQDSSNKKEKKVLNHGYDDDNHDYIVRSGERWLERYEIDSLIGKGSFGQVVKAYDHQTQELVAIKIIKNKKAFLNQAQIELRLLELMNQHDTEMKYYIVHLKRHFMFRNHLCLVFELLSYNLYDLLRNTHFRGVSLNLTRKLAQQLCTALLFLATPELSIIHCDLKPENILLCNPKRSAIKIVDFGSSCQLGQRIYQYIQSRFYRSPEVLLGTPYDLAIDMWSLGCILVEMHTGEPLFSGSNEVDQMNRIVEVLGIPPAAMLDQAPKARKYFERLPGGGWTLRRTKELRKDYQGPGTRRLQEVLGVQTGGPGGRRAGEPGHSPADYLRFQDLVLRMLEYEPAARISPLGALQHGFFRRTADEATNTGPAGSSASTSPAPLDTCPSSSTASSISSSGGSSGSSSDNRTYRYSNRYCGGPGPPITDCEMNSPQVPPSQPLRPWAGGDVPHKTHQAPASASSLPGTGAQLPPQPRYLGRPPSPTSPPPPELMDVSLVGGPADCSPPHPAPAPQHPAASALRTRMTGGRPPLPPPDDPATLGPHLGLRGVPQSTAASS
Glycogen synthase kinase-3 beta (Homo sapiens), sequence (P49841 whole entry, looked up, the tested form may be a part): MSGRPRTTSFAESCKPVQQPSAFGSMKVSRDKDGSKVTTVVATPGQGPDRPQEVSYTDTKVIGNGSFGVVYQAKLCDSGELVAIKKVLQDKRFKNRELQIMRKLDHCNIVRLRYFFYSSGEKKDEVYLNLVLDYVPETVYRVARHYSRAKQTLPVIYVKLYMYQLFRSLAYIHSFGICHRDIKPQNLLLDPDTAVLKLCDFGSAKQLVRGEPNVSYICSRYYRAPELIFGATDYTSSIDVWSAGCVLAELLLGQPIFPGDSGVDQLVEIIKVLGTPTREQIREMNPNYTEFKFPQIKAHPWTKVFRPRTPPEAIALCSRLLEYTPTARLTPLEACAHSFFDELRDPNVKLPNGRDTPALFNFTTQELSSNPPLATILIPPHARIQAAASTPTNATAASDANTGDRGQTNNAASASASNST
Serine/threonine-protein kinase pim-1 (Homo sapiens), sequence (P11309 whole entry, looked up): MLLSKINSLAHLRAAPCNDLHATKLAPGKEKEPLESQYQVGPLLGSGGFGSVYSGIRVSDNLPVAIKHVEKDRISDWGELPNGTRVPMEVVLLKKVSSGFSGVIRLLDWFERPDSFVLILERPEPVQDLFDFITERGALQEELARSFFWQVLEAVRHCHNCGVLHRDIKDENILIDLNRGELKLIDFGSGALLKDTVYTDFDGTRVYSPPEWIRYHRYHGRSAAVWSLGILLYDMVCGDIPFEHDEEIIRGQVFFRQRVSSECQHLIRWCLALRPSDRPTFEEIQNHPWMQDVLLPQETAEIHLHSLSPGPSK
SRSF protein kinase 1 (Homo sapiens), sequence (Q96SB4 whole entry): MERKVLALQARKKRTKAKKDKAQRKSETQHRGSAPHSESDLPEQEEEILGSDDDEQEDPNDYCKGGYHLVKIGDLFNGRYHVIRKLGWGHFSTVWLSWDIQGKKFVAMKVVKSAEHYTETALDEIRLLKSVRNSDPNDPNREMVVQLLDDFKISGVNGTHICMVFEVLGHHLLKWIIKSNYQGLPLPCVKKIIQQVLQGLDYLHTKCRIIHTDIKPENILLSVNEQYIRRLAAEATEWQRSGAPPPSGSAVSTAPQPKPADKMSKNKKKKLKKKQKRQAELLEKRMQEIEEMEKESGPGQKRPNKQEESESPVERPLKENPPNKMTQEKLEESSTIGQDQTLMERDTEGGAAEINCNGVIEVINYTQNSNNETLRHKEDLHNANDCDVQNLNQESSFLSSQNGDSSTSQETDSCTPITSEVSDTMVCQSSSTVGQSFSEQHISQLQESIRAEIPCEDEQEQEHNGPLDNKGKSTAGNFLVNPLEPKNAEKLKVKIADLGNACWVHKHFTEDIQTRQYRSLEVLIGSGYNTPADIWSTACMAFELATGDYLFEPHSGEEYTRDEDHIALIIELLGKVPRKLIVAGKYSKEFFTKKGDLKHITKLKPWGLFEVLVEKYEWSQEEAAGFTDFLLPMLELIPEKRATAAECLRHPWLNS
Cyclin-dependent kinase 5/CDK5 activator 1 (Homo sapiens), sequence (Q00535 whole entry, the tested form may be a part): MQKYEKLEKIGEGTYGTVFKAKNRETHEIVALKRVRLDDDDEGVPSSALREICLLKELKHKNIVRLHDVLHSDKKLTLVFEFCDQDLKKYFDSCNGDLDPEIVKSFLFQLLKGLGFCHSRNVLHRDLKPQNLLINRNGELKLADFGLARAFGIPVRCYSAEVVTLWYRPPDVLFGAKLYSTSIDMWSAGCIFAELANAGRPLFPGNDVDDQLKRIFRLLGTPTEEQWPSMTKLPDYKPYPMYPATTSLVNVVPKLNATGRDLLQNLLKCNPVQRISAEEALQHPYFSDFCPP
Cyclin-dependent kinase 5/CDK5 activator 1 (Homo sapiens), sequence (Q15078 99-307 partner limits assumed): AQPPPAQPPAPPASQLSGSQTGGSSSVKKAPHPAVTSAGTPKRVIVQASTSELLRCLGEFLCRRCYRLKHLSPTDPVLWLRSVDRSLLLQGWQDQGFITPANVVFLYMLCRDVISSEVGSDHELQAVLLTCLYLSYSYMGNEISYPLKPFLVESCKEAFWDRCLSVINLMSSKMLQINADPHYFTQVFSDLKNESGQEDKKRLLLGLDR
Dual specificity protein kinase CLK1 (Homo sapiens), sequence (P49759 whole entry, looked up, the tested form may be a part, canonical isoform): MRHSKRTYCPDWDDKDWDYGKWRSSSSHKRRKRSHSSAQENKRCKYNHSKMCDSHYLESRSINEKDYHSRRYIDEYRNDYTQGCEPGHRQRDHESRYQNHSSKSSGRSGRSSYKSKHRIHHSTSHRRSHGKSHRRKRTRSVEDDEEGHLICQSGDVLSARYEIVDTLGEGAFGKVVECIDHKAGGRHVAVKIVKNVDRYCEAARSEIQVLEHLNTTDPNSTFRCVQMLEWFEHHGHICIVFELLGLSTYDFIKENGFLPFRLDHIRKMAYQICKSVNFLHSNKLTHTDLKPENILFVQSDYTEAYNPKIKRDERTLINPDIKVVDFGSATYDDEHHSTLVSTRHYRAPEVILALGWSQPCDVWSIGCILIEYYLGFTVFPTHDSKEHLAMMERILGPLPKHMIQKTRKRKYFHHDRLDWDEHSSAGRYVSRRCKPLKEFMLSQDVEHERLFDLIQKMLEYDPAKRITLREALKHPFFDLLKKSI
Casein kinase I isoform delta (Homo sapiens), sequence (P48730 whole entry, looked up, canonical isoform): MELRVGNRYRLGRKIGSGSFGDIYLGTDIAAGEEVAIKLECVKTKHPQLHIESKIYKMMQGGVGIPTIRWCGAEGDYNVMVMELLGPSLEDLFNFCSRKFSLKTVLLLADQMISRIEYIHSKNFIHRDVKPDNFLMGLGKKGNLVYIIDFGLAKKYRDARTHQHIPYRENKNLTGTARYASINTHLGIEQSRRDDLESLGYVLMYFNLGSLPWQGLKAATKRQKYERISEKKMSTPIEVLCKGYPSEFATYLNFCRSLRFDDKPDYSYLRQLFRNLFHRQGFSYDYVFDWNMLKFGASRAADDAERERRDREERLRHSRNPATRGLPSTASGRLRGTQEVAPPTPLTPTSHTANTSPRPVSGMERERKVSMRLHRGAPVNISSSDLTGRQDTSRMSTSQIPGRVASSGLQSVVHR
Myosin light chain kinase 2, skeletal/cardiac muscle (Homo sapiens), sequence (Q9H1R3 whole entry): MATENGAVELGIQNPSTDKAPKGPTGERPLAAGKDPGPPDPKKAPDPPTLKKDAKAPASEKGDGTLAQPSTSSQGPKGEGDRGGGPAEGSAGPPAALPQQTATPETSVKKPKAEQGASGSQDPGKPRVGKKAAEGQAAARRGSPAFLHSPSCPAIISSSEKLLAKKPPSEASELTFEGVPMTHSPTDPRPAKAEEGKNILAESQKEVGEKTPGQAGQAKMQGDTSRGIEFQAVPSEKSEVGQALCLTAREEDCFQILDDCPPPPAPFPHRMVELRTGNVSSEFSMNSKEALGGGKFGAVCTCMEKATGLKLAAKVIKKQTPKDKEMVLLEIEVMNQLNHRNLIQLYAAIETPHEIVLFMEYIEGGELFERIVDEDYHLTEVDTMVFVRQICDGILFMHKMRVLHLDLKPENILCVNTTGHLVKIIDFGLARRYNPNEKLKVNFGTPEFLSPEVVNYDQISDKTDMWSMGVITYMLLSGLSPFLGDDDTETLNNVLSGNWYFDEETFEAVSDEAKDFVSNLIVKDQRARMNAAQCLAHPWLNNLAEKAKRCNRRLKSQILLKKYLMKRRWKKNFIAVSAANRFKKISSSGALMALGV

O=C(Nc1ccc(NC(=O)C2CCCCC2)cc1)Nc1nc2ccc(O)cc2s1
inhibition [1]: 25%

O=C(Nc1ccc(NC(=O)c2cc(F)c(F)c(F)c2)cc1)Nc1nc2ccc(O)cc2s1
inhibition [1]: 10%

O=C(Nc1ccc(NC(=O)c2cccc(Br)c2)cc1)Nc1nc2ccc(O)cc2s1
inhibition [1]: 13%

O=C(Nc1cccc(NS(=O)(=O)c2cccc(F)c2)c1)Nc1nc2ccc(O)cc2s1
inhibition [1]: 10%

O=C(Nc1ccc(NC(=O)c2ccc(Cl)cc2)cc1)Nc1nc2ccc(O)cc2s1
inhibition [1]: 6%

O=C(Nc1ccc(NC(=O)c2cccc(O)c2)cc1)Nc1nc2ccc(O)cc2s1
inhibition [1]: 46% | Activity (SH-SY5Y [2]): Active | Papp at 16 h [3]: 6.5 ×10⁻⁶ cm/s

O=C(Cc1ccccc1)Nc1ccc(NC(=O)Nc2nc3ccc(O)cc3s2)cc1
IC50 [4]: 20 nM | inhibition [5]: 6% | inhibition [6]: 21% | inhibition [7]: 6% | inhibition [8]: 3% | inhibition [9]: 4% | inhibition [10]: 20% | inhibition [11]: 28% | inhibition [12]: 8% | Activity [13]: Active | IC50 [14]: 690 nM | Papp at 16 h [3]: 7.9 ×10⁻⁶ cm/s | inhibition [15]: 75%

O=C(Nc1ccc(NC(=O)c2cccc(Cl)c2)cc1)Nc1nc2ccc(O)cc2s1
inhibition [1]: 18%

N#Cc1cccc(C(=O)Nc2ccc(NC(=O)Nc3nc4ccc(O)cc4s3)cc2)c1
inhibition [1]: 36%

COc1ccc2c(c1)[nH]c1c(C)nccc12
Activity (SH-SY5Y [16]): Active

O=C(Nc1ccc(NC(=O)C2CCNCC2)cc1)Nc1nc2ccc(O)cc2s1
IC50 [4]: 177 nM | inhibition [1]: 51% | Activity (SH-SY5Y [16]): Active | Papp at 16 h [3]: 4.4 ×10⁻⁶ cm/s | inhibition [15]: 69%

CN1CCN(C(=O)c2ccc(NC(=O)Nc3nc4ccc(O)cc4s3)cc2)CC1
IC50 [17]: 93 nM | IC50 [18]: > 5000 nM

Cc1cccc(C(=O)Nc2ccc(NC(=O)Nc3nc4ccc(O)cc4s3)cc2)c1
inhibition [1]: 30%

O=C(Nc1ccc(NC(=O)c2ccc(F)cc2)cc1)Nc1nc2ccc(O)cc2s1
inhibition [1]: 13%

O=C(Nc1ccc(NS(=O)(=O)c2ccccc2)cc1)Nc1nc2ccc(O)cc2s1
inhibition [1]: 18%

O=C(Nc1ccc(NC(=O)c2c(F)cc(F)cc2F)cc1)Nc1nc2ccc(O)cc2s1
inhibition [1]: 17%

O=C(Nc1ccc(NS(=O)(=O)c2cc(F)cc(F)c2)cc1)Nc1nc2ccc(O)cc2s1
inhibition [1]: 9%

O=C(Nc1ccc(NC(=O)c2ccccc2F)cc1)Nc1nc2ccc(O)cc2s1
inhibition [1]: 17%

O=C(Nc1ccc(NC(=O)c2cccc(F)c2)cc1)Nc1nc2ccc(O)cc2s1
inhibition [1]: 9%

O=C(Nc1ccc(NC(=O)c2ccccc2)cc1)Nc1nc2ccc(O)cc2s1
IC50 [4]: 154 nM | inhibition [1]: 34% | inhibition [15]: 65%

CCn1cc(C(=O)O)c(=O)c2cc(F)c(N3CCNCC3)cc21 [NORFLOXACIN]
Papp at 16 h [3]: 1.1 ×10⁻⁶ cm/s

O=C(Nc1ccc(NS(=O)(=O)c2ccccc2F)cc1)Nc1nc2ccc(O)cc2s1
inhibition [1]: 19%

O=C(Nc1ccc(NC(=O)C2CC2)cc1)Nc1nc2ccc(O)cc2s1
IC50 [4]: 159 nM | inhibition [1]: 29% | inhibition [15]: 62%

O=C(Nc1ccc(NS(=O)(=O)c2cccc(F)c2)cc1)Nc1nc2ccc(O)cc2s1
IC50 [4]: 45 nM | inhibition [1]: 15% | inhibition [5]: 5% | inhibition [6]: 7% | inhibition [7]: 15% | inhibition [19]: 2% | inhibition [8]: 3% | inhibition [9]: 4% | inhibition [10]: 27% | inhibition [20]: 18% | inhibition [11]: 29% | inhibition [21]: 3% | inhibition [12]: 15% | inhibition [15]: 79%

O=C(Nc1ccc(NC(=O)c2cc(Cl)cc(Cl)c2)cc1)Nc1nc2ccc(O)cc2s1
inhibition [1]: 11%

N#Cc1ccc(C(=O)Nc2ccc(NC(=O)Nc3nc4ccc(O)cc4s3)cc2)cc1
inhibition [1]: 23%

O=C(Nc1ccc(NC(=O)C2CCC2)cc1)Nc1nc2ccc(O)cc2s1
inhibition [1]: 26%

CC(=O)Nc1ccc(NC(=O)Nc2nc3ccc(O)cc3s2)cc1
inhibition [1]: 65%

O=C(Nc1ccc(NC(=O)c2cc(F)cc(F)c2)cc1)Nc1nc2ccc(O)cc2s1
inhibition [1]: 11%

O=C(Nc1ccc(NC(=O)c2cccc(C(F)(F)F)c2)cc1)Nc1nc2ccc(O)cc2s1
inhibition [1]: 14%
